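Interpolation was linear, between the two tested concentrations surrounding the appropriate level; five concentrations were tested over 48 hours in 96-well plates. Abbreviation: GI50, concentration required for 50% inhibition of growth.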 The source made the active and inactive calls. No stated cut-off is given here; in the data, active = GI50 up to about 1.1 µM and inactive = higher.
How the values were obtained:
Assay in all cases: DTP human tumour cell line panel, 48 h
[1] = test system: 786-0
[2] = test system: A549
[3] = test system: CCRF-CEM
[4] = test system: DMS-114
[5] = test system: HCT-116
[6] = test system: HT-29
[7] = test system: KM12
[8] = test system: LXFL 529
[9] = test system: Malme-3M
[10] = test system: OVCAR-3
[11] = test system: OVCAR-5
[12] = test system: RPMI-8226
[13] = test system: RXF 393
[14] = test system: SK-MEL-5
[15] = test system: UACC-257
[16] = test system: UACC-62
[17] = test system: SR

Measured: GI50

CC(C)(C)CC(C)(C)c1cc2c(O)c(c1)Cc1cc(C(C)(C)CC(C)(C)C)cc(c1O)Cc1cc(C(C)(C)CC(C)(C)C)cc(c1O)Cc1cc(C(C)(C)CC(C)(C)C)cc(c1O)Cc1cc(C(C)(C)CC(C)(C)C)cc(c1O)C2
inactive: [1] > 100 µM | [2] > 100 µM | [3] > 100 µM | [4] > 100 µM | [5] > 100 µM | [6] > 100 µM | [7] > 100 µM | [8] > 100 µM | [9] > 100 µM | [10] > 100 µM | [11] > 100 µM | [12] > 100 µM | [13] > 100 µM | [14] > 100 µM | [15] > 100 µM | [16] > 100 µM

CN(C)C=C1C(Cl)=C(C=O)CC(C=O)=C1Cl
inactive: [1] 11.8 µM | [2] 86.9 µM | [3] 2.5 µM | [4] 11.2 µM | [6] 14 µM | [7] 6.46 µM | [8] 2.03 µM | [9] 10.4 µM | [10] 13.5 µM | [11] 15.9 µM | [12] 2.39 µM | [13] 6.21 µM | [14] 10.4 µM | [15] 14.9 µM | [16] 15.1 µM

COC(=O)C12C3C=CC(O3)C1C1C=CC2O1 (configuration not stated)
inactive: [1] > 100 µM | [2] > 100 µM | [3] > 100 µM | [6] > 100 µM | [7] > 100 µM | [8] > 100 µM | [9] > 100 µM | [10] > 100 µM | [11] > 100 µM | [12] > 100 µM | [13] > 100 µM | [14] > 100 µM | [17] > 100 µM | [15] > 100 µM

COC(=O)/C(=N/O)C(C(=O)C=C(C)C)C(=O)C(=O)Nc1nc2ccc([N+](=O)[O-])cc2s1 (configuration not stated)
inactive: [1] 37.3 µM | [2] 30.8 µM | [3] 24.7 µM | [5] 41.7 µM | [6] 59.7 µM | [7] 47.2 µM | [8] 25.6 µM | [9] 27.5 µM | [10] 21.5 µM | [11] 37.7 µM | [12] 27.9 µM | [14] 43.8 µM | [17] 38.1 µM | [15] 44.6 µM | [16] 32.6 µM

Cc1cc(NS(=O)(=O)c2ccc(Nc3c4ccccc4nc4c(C(=O)Nc5ccc(S(=O)(=O)N=C(N)N)cc5)cccc34)cc2)no1
inactive: [1] > 100 µM | [2] > 100 µM | [3] > 100 µM | [4] > 100 µM | [5] > 100 µM | [6] > 100 µM | [7] > 100 µM | [8] > 100 µM | [9] > 100 µM | [10] > 100 µM | [11] > 100 µM | [12] > 100 µM | [13] > 100 µM | [14] > 100 µM | [15] > 100 µM | [16] > 100 µM

COC12OCCN(C)C1=CC(=O)C1N=NCC12 (configuration not stated)
inactive: [1] > 100 µM | [2] > 100 µM | [3] > 100 µM | [4] > 100 µM | [5] > 100 µM | [6] > 100 µM | [7] > 100 µM | [8] > 100 µM | [10] > 100 µM | [12] > 100 µM | [13] > 100 µM | [14] > 100 µM | [15] > 100 µM | [16] > 100 µM

CN(C)C(=S)/N=c1\ss/c(=N\C(=S)N(C)C)n1-c1cccc(Cl)c1
inactive: [1] > 100 µM | [2] > 100 µM | [3] > 100 µM | [4] > 100 µM | [5] > 100 µM | [6] > 100 µM | [7] > 100 µM | [9] > 100 µM | [10] > 100 µM | [11] > 100 µM | [12] > 100 µM | [13] 79.6 µM | [14] > 100 µM | [17] > 100 µM | [15] > 100 µM | [16] > 100 µM

Cc1ccc(S(=O)(=O)O/N=C2\CCC\C2=C/c2ccccc2)cc1
inactive: [1] 25.4 µM | [2] 29.4 µM | [3] 58.6 µM | [5] 12.4 µM | [6] 25.3 µM | [7] 17.6 µM | [8] 16.6 µM | [10] 18.5 µM | [11] 23 µM | [12] 16 µM | [13] 20.3 µM | [14] 14.8 µM | [17] 16.4 µM | [15] 17.1 µM | [16] 8.45 µM

COc1ccccc1NC(=O)C1=C(C)NC(C)=C(C(=O)Nc2ccccc2OC)C1c1cccc2c1OCO2
inactive: [1] > 100 µM | [2] 62.7 µM | [3] 34.6 µM | [4] 77.3 µM | [5] 71.9 µM | [6] > 100 µM | [7] 60.7 µM | [8] 69.2 µM | [9] > 100 µM | [10] > 100 µM | [11] > 100 µM | [12] 33 µM | [14] 46 µM | [17] 30.5 µM | [15] > 100 µM | [16] > 100 µM

CCC1(Br)C(=O)NC(=O)N(C2CC(O)C(CO)O2)C1N=[N+]=[N-] (configuration not stated)
inactive: [1] > 100 µM | [2] > 100 µM | [3] 44 µM | [4] 72.1 µM | [6] > 100 µM | [8] > 100 µM | [9] > 100 µM | [10] > 100 µM | [11] > 100 µM | [12] > 100 µM | [13] 66.7 µM | [14] > 100 µM | [15] 83.6 µM | [16] > 100 µM

CC[P+]1(CC)CCCC1
inactive: [1] > 100 µM | [2] > 100 µM | [3] > 100 µM | [4] > 100 µM | [6] > 100 µM | [7] > 100 µM | [8] > 100 µM | [9] > 100 µM | [10] > 100 µM | [11] > 100 µM | [12] > 100 µM | [13] > 100 µM | [14] > 100 µM | [15] > 100 µM | [16] > 100 µM

NC(=O)C(=Cc1ccc(C(O)P(=O)(O)O)cc1)C(N)=O (configuration not stated)
inactive: [1] > 100 µM | [2] > 100 µM | [4] > 100 µM | [5] > 100 µM | [6] > 100 µM | [7] > 100 µM | [8] > 100 µM | [9] > 100 µM | [10] > 100 µM | [11] > 100 µM | [12] > 100 µM | [13] > 100 µM | [14] > 100 µM | [15] > 100 µM | [16] > 100 µM

C[C@@H](C1CCC2C3C(=CC(=O)[C@@]21C)[C@H](C)[C@]1(CCC(=O)O1)C1OC31)[C@H]1C[C@]2(C)O[C@@](C)(O1)OC2(C)C (some centres not stated)
inactive: [1] > 100 µM | [2] > 100 µM | [3] > 100 µM | [4] > 100 µM | [5] > 100 µM | [6] > 100 µM | [8] > 100 µM | [12] > 100 µM | [13] > 100 µM | [14] > 100 µM | [16] > 100 µM

From ChEMBL document CHEMBL1201862, “PubChem BioAssay data set” (2004)
